Assay results taken from patent US20070060551A1, “Methods of using isothiazole derivatives to treat cancer or inflammation” (QLT, Inc., priority 2002, published 2007).

Tests used:
PTPN12 = molecular target: T1, PTPN12 (Homo sapiens, UniProt Q05209); assay: PTPN12 in vitro phosphatase assay (malachite green phosphate release); type: biochemical; conditions: for % Inhibition of PTPN12: at 20 μm concentration
T1 construct: Expression of human truncated PTPN12 (PTP-PEST-N) as a fusion protein; made in house; host or cells: E. coli strain ER2566 (IMPACT vector pTWIN-II)
T1 sequence (Q05209 28-293 limits assumed): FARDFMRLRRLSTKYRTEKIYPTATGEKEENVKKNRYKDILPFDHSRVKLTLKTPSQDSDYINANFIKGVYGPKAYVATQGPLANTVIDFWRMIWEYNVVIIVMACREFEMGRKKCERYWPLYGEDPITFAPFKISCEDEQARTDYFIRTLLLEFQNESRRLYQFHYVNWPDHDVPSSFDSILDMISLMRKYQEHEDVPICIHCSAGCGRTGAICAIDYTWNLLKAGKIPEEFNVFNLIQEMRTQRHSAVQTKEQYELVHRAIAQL
Experimental: Expression of human truncated PTPN12 (PTP-PEST-N) as a fusion protein required that the cDNA be ligated into the polyclonal site situated in frame and upstream of the intein gene of the IMPACT™ expression vector pTWIN-II. The truncated version was used as it was far easier to handle and gave parallel results to the full length protein in comparison testing. For the purpose of simplicity, PTP-PEST-N will be used interchangeably with PTPN12 in these Examples.
Biochemical analysis is performed on recombinant human PTPN12 fusion protein. […] This activity is considered to be in the high range as compared to other recombinant protein tyrosine phosphatases. PTPN12 preparations were subsequently used extensively in in vitro assays for the initial discovery of compounds having the ability to inhibit PTPN12 activity.
Compounds were tested in the following assay for their ability to inhibit the activity of the desired phosphatase.
The enzyme (phosphatase) activity was determined in a reaction that measured phosphate relase from tyrosine phospho-specific peptides using a method first described by Harder et al., Biochem. J. (1994), Vol. 298, pp. 395-401. This is a non-radioactive method for measuring free phosphate by the malachite green method first described by Van Veldhoven and Mannaerts, Anal Biochem. (1987), Vol.161, pp. 45-48. 10× assay buffer (250 mM Tris:100 mM, β-Mercaptoethanol, 50 mM EDTA; pH 7.2) was diluted to 5× concentration with distilled H2O (dH2O). Then 71.4 μM of substrate working stock solution was prepared in dH2O.
In a Falcon 96 well plate the sample compound was diluted in 1% DMSO (One mL DMSO (Sigma, Cat. # D-8779) dissolved in 99 mL dH2O and stored at room temperature) such that the concentration of the sample compound working stock solution is ten times the final desired concentration of the compound in the assay.
The negative control consisted of 5 μl 1% DMSO and 35 μL substrate working stock solution and 10 μL diluted enzyme, per well), and was placed in the first column of wells on the plate. The last column of wells on the plate was reserved for an enzyme blank, which consisted of 5 μL 1% DMSO, 35 μL substrate working stock solution, and 10 μL 5× assay buffer, per well. Test samples were placed in columns 2-11 and consisted of 5 μL sample in 1% DMSO, 35 μL substrate working stock solution, and 10 μL of diluted enzyme, per well, at the desired concentration. Using the repeater function of a Biohit™ multichannel pipettor, 5 μL of 100 μM sample from the Falcon plate columns was added to corresponding Costar™ assay plate columns.
Using a multichannel pipettor, 35 μL of 71.4 μM ppC-SRC 60 substrate was added to all assay wells, then 10 μL of appropriately diluted enzyme was added to the wells on a column by column basis, pausing 5 seconds between columns. Timing started at the first addition.
The assay plate was incubated at room temperature (21° C.) for 15 minutes. The reaction was “stopped” by adding 100 μL colour reagent on a column by column basis, pausing 5 seconds between columns. Colour was allowed to develop for at least 15 minutes, but no longer than two hours, at room temperature. The plate was “read” on Bio-tek Instruments EL312e™ microplate Bio-Kinetics™ reader at 590 nm and the data collected as per instrument manual.
The blank and negative controls were read, and blanks were subtracted from the average of negative control values and sample values, and the % inhibition was expressed by the following formula: % Inhibition=100−[corrected sample reading/corrected Negative Control reading*100].

caspase-3 = molecular target: T2, caspase-3 (Homo sapiens, UniProt P42574); assay: Caspase-3 selectivity assay (Calbiochem kit, colorimetric); type: biochemical
T2 construct: purchased Calbiochem
T2 sequence (P42574 29-175 limits assumed): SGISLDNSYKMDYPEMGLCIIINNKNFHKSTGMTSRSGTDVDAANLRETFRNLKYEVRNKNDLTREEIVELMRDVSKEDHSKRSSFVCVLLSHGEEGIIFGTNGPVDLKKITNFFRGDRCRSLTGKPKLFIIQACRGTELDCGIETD
T2 sequence (P42574 176-277 limits assumed): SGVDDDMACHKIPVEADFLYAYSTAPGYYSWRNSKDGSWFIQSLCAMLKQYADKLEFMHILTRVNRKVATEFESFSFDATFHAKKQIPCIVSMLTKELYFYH
From the text: This is a selectivity assay, which provides information about the specificity of the compounds. A cysteine residue located within the active pocket of the catalytic domain that is conserved between the […] like caspase-3 and the protein tyrosine phosphatases like PTPN12 has a thiol group within this cysteine amino acid that may interact with specific R-groups with inhibiting compounds with in vitro enzyme inhibiting activity. Also, caspase inhibition can prevent apoptosis from occurring in some cases via the caspase cascade. As the potential for cross-inhibitory activity and nonselectivity exists, the caspase-3 assay is performed on PTN12 inhibitors.
The Calbiochem caspase-3 assay kit was utilized according to package insert instructions. The assay is useful for screening for caspase-3 inhibitors measuring the protease activity of caspase-3 and other caspase-3-like activities. Cleavage is monitored calorimetrically by measuring the increase in absorbance at 405 nm. Assays were performed in a 96-well microtiter plate format.

various cell lines = assay: Cytotoxicity assay (calcein AM cell viability); type: cell-based; conditions: approximately 24 hours incubation
From the text: This procedure is used to assess the effects compounds have on various cell lines with respect to cell viability. Cell viability is quantified using calcein AM and measuring its conversion to a fluorescent product (calcein) with a fluorimeter.
The principle of this assay is based on the presence of ubiquitous intracellular esterase activity found in live cells. By enzymatic reaction of esterase, non-fluorescent cell-permeant calcein AM is converted to the intensely fluorescent calcein. The polyanionic dye calcein is retained within live cells, producing a green fluorescence in live cells. […]
Cells were collected from tissue culture flasks and trypsinized, centrifuged, resuspended and counted. […]
The calcein AM solution is prepared by added 50 μg of calcein AM crystal (m.w. =994.87 g/mol, Molecular Probes, Eugene, Oreg.) and Anhydrous DMSO (Sigma Aldrich) to make 1 mM stock and diluting stock to 2× the final desired concentration in 1× DPBS just before the assay. […] Fluorescence data was read and recorded (Fluoroskan Ascent® FL fluorimeter (excitation˜485nm, emission˜527nm)).
The values for replicates (usually six) are averaged and % inhibition is calculated as follows: % inhibition=100−[(AVG treatment−AVG positive control)/(AVG negative control−AVG positive control)*100]

Structure (SMILES): CSc1nsc(SCc2ccccc2)c1C(N)=O [5-Benzylsulfanyl-3-methylsulfanyl-isothiazole-4-carboxylic acid amide]
- IC50 (PTPN12; PTPN12, unit inferred): 1.5 µM
- inhibition at 20 µM (PTPN12; at 20 μM (Table 2)): 94%
- % Inhibition of Caspase 3 (caspase-3; at 10 μm): 4 at 10 μm %
- % Inhibition of Caspase 3 (caspase-3; at 100 μm): 14 at 100 μm %
- cytotoxicity (cell viability, calcein AM) (various cell lines): no cytotoxicity

Structure (SMILES): N#Cc1c(SCC(=O)Nc2ccc(S(N)(=O)=O)cc2)nsc1SCC(=O)Nc1ccc(S(N)(=O)=O)cc1 [2-{4-Cyano-3-[(4-sulfamoyl-phenylcarbamoyl)-methylsulfanyl]-isothiazol-5-ylsulfanyl}-N-(4-sulfamoyl-phenyl)-acetamide]
- % Inhibition of PTPN12 (PTPN12): 73%

Structure (SMILES): CSc1nsc(SC)c1C(=O)N1CCCCC1 [(3,5-Bis-methylsulfanyl-isothiazol-4-yl)-piperidin-1-yl-methanone]
- % Inhibition of PTPN12 (PTPN12): 51%

Structure (SMILES): CCS(=O)(=O)CCSc1nsc(SCCS(=O)(=O)CC)c1C#N [3,5-Bis-(2-ethanesulfonyl-ethylsulfanyl)-isothiazole-4-carbonitrile]
- % Inhibition of PTPN12 (PTPN12): 60%

Structure (SMILES): CS(=O)(=O)c1nsc(S(C)(=O)=O)c1C(=O)NC(=O)Nc1ccccc1Cl [1-(3,5-Bis-methanesulfonyl-isothiazole-4-carbonyl)-3-(2-chloro-phenyl)-urea]
- % Inhibition of PTPN12 (PTPN12): 63%
